In patent publication US11420970B1 (NOVARTIS AG, priority 2019, dated 2022) one finds IC50 data, which are given here for 22 compounds.

Read-outs that look alike come from different tables or passages of the source.

Test [1] deals with NSD2 [1-1365] (Homo sapiens (Human), UniProt O96028). In words: LC-MS/MS-based NSD2 enzymatic assay (SAH production). The note with it: read-out: NSD2 IC50. It is filed as biochemical. In outline:
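SAH formed was measured by LC-MS/MS using d4-SAH as internal standard and an SAH calibration curve. Compounds were preincubated 20 min with NSD2 [1-1365] and SAM; mouse-liver nucleosome then started a 90 min room-temperature reaction (8 nM enzyme, 1 μM SAM, 400 nM nucleosome final, pH 8.0), stopped with TFA.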

Test [2] relates to cellular H3K36me2 level in thyroid carcinoma cell line CGTH-W-1 (NSD2 E1099K). In words: H3K36me2 cellular ELISA assay in CGTH-W-1 line. The class given is cell-based. Conditions: Homo sapiens, read-out: H3K36me2 ELISA in CGTH-W-1. The procedure:
H3K36Me2 Cellular ELISA Assay in CGTH-W-1 Line
An ELISA (enzyme-linked immunosorbent assay) based assay was used to test the ability of candidate compound to reduce cellular H3K36me2 level in thyroid carcinoma cell line CGTH-W-1, carrying NSD2 E1099K gain of function mutation. CGTH-W-1 (DSMZ) cells are maintained in RPM11640 media with 10% FBS and 50 U/ml Penicillin-Streptomycin.
Cells were treated with tested compounds at the desired concentration for 72 hours.
Histone bound plates were washed and blocked with 5% BSA. […] The abundance of H3K36me2 and total H3 was measured by Chemiluminesce on a plate reader. Cell viability was monitored on a parallel seeded plate with CellTiter-Glo reagent (Promega #G7573).
On the technique in general: An ELISA detects its analyte on a solid surface through an enzyme-linked reagent.

Test [3] has as its system cellular H3K36me2 level in multiple myeloma cell line KMS11 (t(4;14)+). In words: H3K36me2 cellular ELISA assay in KMS11-Par line. The class given is cell-based. The note with it: Homo sapiens, KMS-11, ELISA, read-out: H3K36me2 ELISA in KMS11-Par. In outline:
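After 72 h compound exposure, HCl-extracted histones from KMS11 (t(4;14)+) cells were probed by ELISA for H3K36me2 against total H3 with a chemiluminescence read-out. Cells were plated at 1,250/well in Opti-MEM plus B-27 and N2 the day before. A parallel CellTiter-Glo plate tracked viability.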

Sequence of NSD2 [1-1365] (O96028 whole entry): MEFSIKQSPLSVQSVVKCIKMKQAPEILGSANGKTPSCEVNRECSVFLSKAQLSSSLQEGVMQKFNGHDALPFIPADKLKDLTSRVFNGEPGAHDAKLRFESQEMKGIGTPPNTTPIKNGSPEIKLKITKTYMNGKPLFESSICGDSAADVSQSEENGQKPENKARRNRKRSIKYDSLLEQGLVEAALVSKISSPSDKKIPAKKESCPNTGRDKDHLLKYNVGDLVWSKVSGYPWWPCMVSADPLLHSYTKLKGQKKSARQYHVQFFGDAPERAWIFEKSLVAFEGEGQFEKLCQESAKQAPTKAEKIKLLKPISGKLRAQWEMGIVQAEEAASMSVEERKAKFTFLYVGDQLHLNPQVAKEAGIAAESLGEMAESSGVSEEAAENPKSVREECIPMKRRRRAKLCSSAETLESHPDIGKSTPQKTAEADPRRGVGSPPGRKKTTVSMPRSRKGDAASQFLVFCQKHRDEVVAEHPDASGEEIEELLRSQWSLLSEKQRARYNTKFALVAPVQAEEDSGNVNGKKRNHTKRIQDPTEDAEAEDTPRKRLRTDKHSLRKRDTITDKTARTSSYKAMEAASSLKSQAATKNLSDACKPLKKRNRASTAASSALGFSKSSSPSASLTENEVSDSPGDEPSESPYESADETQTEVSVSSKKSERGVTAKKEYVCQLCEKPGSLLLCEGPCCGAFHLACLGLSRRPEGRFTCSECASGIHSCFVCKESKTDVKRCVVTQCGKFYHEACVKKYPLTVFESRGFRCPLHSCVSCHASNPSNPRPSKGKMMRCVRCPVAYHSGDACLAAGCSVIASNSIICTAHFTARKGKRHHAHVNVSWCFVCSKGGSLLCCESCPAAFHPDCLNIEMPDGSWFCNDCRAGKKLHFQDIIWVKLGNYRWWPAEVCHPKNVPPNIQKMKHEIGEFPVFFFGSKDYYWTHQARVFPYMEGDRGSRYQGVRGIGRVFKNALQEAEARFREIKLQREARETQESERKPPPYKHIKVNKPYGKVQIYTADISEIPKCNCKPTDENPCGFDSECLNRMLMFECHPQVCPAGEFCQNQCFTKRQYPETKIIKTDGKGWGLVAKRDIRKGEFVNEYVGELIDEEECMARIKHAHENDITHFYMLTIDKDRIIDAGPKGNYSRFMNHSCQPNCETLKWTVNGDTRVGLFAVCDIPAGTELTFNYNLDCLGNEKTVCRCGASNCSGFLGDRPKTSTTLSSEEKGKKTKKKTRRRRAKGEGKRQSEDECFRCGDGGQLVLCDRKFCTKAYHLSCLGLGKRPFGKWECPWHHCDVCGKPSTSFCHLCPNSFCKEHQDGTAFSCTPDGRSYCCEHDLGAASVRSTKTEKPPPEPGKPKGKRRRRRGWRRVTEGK

Consider `Nc1ncnc2c1ncn2Cc1cc(-c2ccc(OC(F)F)cc2)ncc1N1CCCC(N)(c2cccc(Cl)n2)C1` (centres unmarked) [Example 184, 9-((5-(3-amino-3-(6-chloropyridin-2-yl)piperidin-1-yl)-2-(4-(difluoromethoxy)phenyl)pyridin-4-yl)methyl)-9H-purin-6-amine], for which the IC50 in test [1] is 10 to 1000 nM; in test [2] (CGTH-W-1, 72 h) it was 592 nM.
`COc1cccc([C@@]2(N)CCCN(c3cnc(-c4ccc(F)c(F)c4)cc3Cn3cnc4c(N)ncnc43)C2)n1` [Example 178, (R)-9-((5-(3-amino-3-(6-methoxypyridin-2-yl)piperidin-1-yl)-2-(3,4-difluorophenyl)pyridin-4-yl)methyl)-9H-purin-6-amine]: the IC50 in test [1] was 1 to 10 nM; in test [2] (CGTH-W-1, 72 h), 230 nM.
For `Nc1ncnc2c1ncn2Cc1cc(-c2ccc(OC(F)F)c(F)c2)ncc1N1CCCC(N)(c2cccc(Cl)n2)C1` (centres unmarked) [Example 228, 9-((5-(3-amino-3-(6-chloropyridin-2-yl)piperidin-1-yl)-2-(4-(difluoromethoxy)-3-fluorophenyl)pyridin-4-yl)methyl)-9H-purin-6-amine], the IC50 was 10 to 1000 nM in test [1] and 611 nM in test [2] (CGTH-W-1, 72 h).
With `COc1ccc(-c2cc(Cn3cnc4c(N)ncnc43)c(N3CCC[C@](N)(c4cccc(Cl)n4)C3)cn2)cc1` [Example 211, (R)-9-((5-(3-amino-3-(6-chloropyridin-2-yl)piperidin-1-yl)-2-(4-methoxyphenyl)pyridin-4-yl)methyl)-9H-purin-6-amine], the IC50 in test [1] is 1 to 10 nM; in test [2] (CGTH-W-1, 72 h), 387 nM.
Take `Cn1ncc2cc(-c3cc(Cn4cnc5c(N)ncnc54)c(N4CCCC(N)(c5cccc(Cl)n5)C4)cn3)ccc21` (centres unmarked) [Example 225, 9-((5-(3-amino-3-(6-chloropyridin-2-yl)piperidin-1-yl)-2-(1-methyl-1H-indazol-5-yl)pyridin-4-yl)methyl)-9H-purin-6-amine]: the IC50 is 10 to 1000 nM in test [1] and 1960 nM in test [2] (CGTH-W-1, 72 h).
Consider `N#Cc1cccc(C2(N)CCCN(c3cnc(-c4ccc(F)c(F)c4)cc3Cn3cnc4c(N)ncnc43)C2)n1` (centres unmarked) [Example 208, 6-(3-amino-1-(4-((6-amino-9H-purin-9-yl)methyl)-6-(3,4-difluorophenyl)pyridin-3-yl)piperidin-3-yl)picolinonitrile], for which the IC50 in test [1] is 10 to 1000 nM; in test [2] (CGTH-W-1, 72 h) it was 2780 nM.
For `Nc1ncnc2c1ncn2Cc1cc(-c2ccc3c(c2)OCO3)ncc1N1CCCC(N)(c2cccc(Cl)n2)C1` (centres unmarked) [Example 186, 9-((5-(3-amino-3-(6-chloropyridin-2-yl)piperidin-1-yl)-2-(benzo[d][1,3]dioxo1-5-yl)pyridin-4-yl)methyl)-9H-purin-6-amine], the IC50 in test [1] is 10 to 1000 nM; in test [2] (CGTH-W-1, 72 h) it was 967 nM.
As to `COc1ccc(-c2cc(Cn3cnc4c(N)ncnc43)c(N3C[C@H](N)C[C@@H](CF)C3)cn2)cc1F` [Example 306, 9-((5-((3R,5R)-3-amino-5-(fluoromethyl)piperidin-1-yl)-2-(3-fluoro-4-methoxyphenyl)pyridin-4-yl)methyl)-9H-purin-6-amine], the IC50 in test [1] is 10 to 1000 nM; in test [2] (CGTH-W-1, 72 h), 6460 nM.
In the same order, the values of `Nc1ncnc2c1ncn2Cc1cc(-c2ccc3c(c2)COC3)ncc1N1CCCC(N)(c2cccc(Cl)n2)C1` (centres unmarked) [Example 179, 9-((5-(3-amino-3-(6-chloropyridin-2-yl)piperidin-1-yl)-2-(1,3-dihydroisobenzofuran-5-yl)pyridin-4-yl)methyl)-9H-purin-6-amine] are 10 to 1000 nM and 1420 nM.
With `Nc1ncnc2c1ncn2Cc1cc(-c2ccc(F)c(F)c2)ncc1N1CCCC(N)(c2cccnn2)C1` (centres unmarked) [Example 253, 9-((5-(3-amino-3-(pyridazin-3-yl)piperidin-1-yl)-2-(3,4-difluorophenyl)pyridin-4-yl)methyl)-9H-purin-6-amine], the IC50 in test [1] is 10 to 1000 nM; in test [2] (CGTH-W-1, 72 h), 357 nM.
As to `NC(=O)c1cccc(C2(N)CCCN(c3cnc(-c4ccc(F)c(F)c4)cc3Cn3cnc4c(N)ncnc43)C2)n1` (centres unmarked) [Example 195, 6-(3-amino-1-(4-((6-amino-9H-purin-9-yl)methyl)-6-(3,4-difluorophenyl)pyridin-3-yl)piperidin-3-yl)picolinamide], the IC50 in test [1] is 10 to 1000 nM; in test [2] (CGTH-W-1, 72 h), 4920 nM.
Consider `Nc1ncnc2c1ncn2Cc1cc(-c2ccc(F)c(F)c2)ncc1N1CCCC(N)(c2ccncn2)C1` (centres unmarked) [Example 255, 9-((5-(3-amino-3-(pyrimidin-4-yl)piperidin-1-yl)-2-(3,4-difluorophenyl)pyridin-4-yl)methyl)-9H-purin-6-amine], for which the IC50 in test [1] was 10 to 1000 nM; in test [2] (CGTH-W-1, 72 h) it was 232 nM.
Turning to `Nc1ncnc2c1ncn2Cc1cc(-c2ccc(F)cc2)ncc1N1CCCC(N)(c2csc(Cl)n2)C1` (centres unmarked) [Example 281, 9-((5-(3-amino-3-(2-chlorothiazol-4-yl)piperidin-1-yl)-2-(4-fluorophenyl)pyridin-4-yl)methyl)-9H-purin-6-amine], the IC50 in test [1] was 10 to 1000 nM; in test [2] (CGTH-W-1, 72 h), 826 nM.
Take `Nc1ncnc2c1ncn2Cc1cc(-c2ccc(F)cc2)ncc1N1CCC[C@](N)(c2ccc(F)c(C(F)F)n2)C1` [Example 218, (R)-9-((5-(3-amino-3-(6-(difluoromethyl)-5-fluoropyridin-2-yl)piperidin-1-yl)-2-(4-fluorophenyl)pyridin-4-yl)methyl)-9H-purin-6-amine]: the IC50 was 10 to 1000 nM in test [1] and 101 nM in test [2] (CGTH-W-1, 72 h).
On to `Nc1ncnc2c1ncn2Cc1cc(-c2ccc(F)c(F)c2)ncc1N1CCCC(N)(Cc2cccc(F)n2)C1` (centres unmarked) [Example 69, 9-((5-(3-amino-3-((6-fluoropyridin-2-yl)methyl)piperidin-1-yl)-2-(3,4-difluorophenyl)pyridin-4-yl)methyl)-9H-purin-6-amine], for which the IC50 in test [1] (NSD2 biochemical activity, class symbols) is 10 to 1000 nM; in test [3] (KMS11-Par line (t(4;14)+), 72 hours treatment), 1150 nM.
`Nc1nccc2c1ncn2Cc1cc(C2CC2)ncc1N1CCC[C@](N)(c2cccc(C(F)F)n2)C1` [Example 264, (R)-1-((5-(3-amino-3-(6-(difluoromethyl)pyridin-2-yl)piperidin-1-yl)-2-cyclopropylpyridin-4-yl)methyl)-1H-imidazo[4,5-c]pyridin-4-amine]: the IC50 in test [1] is 10 to 1000 nM; in test [3] (KMS11-Par line, 72 hours) it was 9630 nM.
For the compound `CC(C)n1ccc([C@@]2(N)CCCN(c3cnc(-c4ccc(F)cc4)cc3Cn3cnc4c(N)ncnc43)C2)n1` [Example 274, (R)-9-((5-(3-amino-3-(1-isopropyl-1H-pyrazol-3-yl)piperidin-1-yl)-2-(4-fluorophenyl)pyridin-4-yl)methyl)-9H-purin-6-amine], the IC50 was 1 to 10 nM in test [1] and 5540 nM in test [3] (KMS11-Par line, 72 hours).
On to `Cc1cncc([C@@]2(N)CCCN(c3cnc(-c4ccc(F)c(F)c4)cc3Cn3cnc4c(N)ncnc43)C2)n1` [Example 258, (R)-9-((5-(3-amino-3-(6-methylpyrazin-2-yl)piperidin-1-yl)-2-(3,4-difluorophenyl)pyridin-4-yl)methyl)-9H-purin-6-amine], for which the IC50 in test [1] was 10 to 1000 nM; in test [2] (CGTH-W-1, 72 h), 434 nM.
As to `Nc1ncnc2c1ncn2Cc1cc(-c2ccc(F)c(F)c2)ncc1N1CC[C@@H](O)[C@](N)(c2cccc(Cl)n2)C1` [Example 302, (3R,4R)-3-amino-1-(4-((6-amino-9H-purin-9-yl)methyl)-6-(3,4-difluorophenyl)pyridin-3-yl)-3-(6-chloropyridin-2-yl)piperidin-4-ol], the IC50 in test [1] is 10 to 1000 nM; in test [3] (KMS11-Par line, 72 hours) it was 563 nM.
As for `Cn1cc([C@@]2(N)CCCN(c3cnc(-c4ccc(F)c(F)c4)cc3Cn3cnc4c(N)ncnc43)C2)cn1` [Example 269, (S)-9-((5-(3-amino-3-(1-methyl-1H-pyrazol-4-yl)piperidin-1-yl)-2-(3,4-difluorophenyl)pyridin-4-yl)methyl)-9H-purin-6-amine], the IC50 in test [1] is 1 to 10 nM; in test [3] (KMS11-Par line, 72 hours) it was 5680 nM.
`Cn1cc(C2(N)CCCN(c3cnc(-c4ccc(F)c(F)c4)cc3Cn3cnc4c(N)ncnc43)C2)nn1` (centres unmarked) [Example 282, 9-((5-(3-amino-3-(1-methyl-1H-1,2,3-triazol-4-yl)piperidin-1-yl)-2-(3,4-difluorophenyl)pyridin-4-yl)methyl)-9H-purin-6-amine]: the IC50 in test [1] is 10 to 1000 nM; in test [2] (CGTH-W-1, 72 h) it was 1530 nM.
`Nc1ncnc2c1ncn2Cc1cc(-c2ccc(F)c(F)c2)ncc1N1CCC[C@](N)(c2ccc(OC(F)F)cn2)C1` [Example 209, (R)-9-((5-(3-amino-3-(5-(difluoromethoxy)pyridin-2-yl)piperidin-1-yl)-2-(3,4-difluorophenyl)pyridin-4-yl)methyl)-9H-purin-6-amine]: the IC50 in test [1] is 1 to 10 nM; in test [2] (CGTH-W-1 line, ELISA, 72 hours), 324 nM.
